From patent publication US10080365B2, “Use of strobilurin type compounds for combating phytopathogenic fungi resistant to Qo inhibitors” (BASF SE, priority 2011, dated 2018)
Read-outs that look alike come from different tables or passages of the source.

How the values were obtained:
[1] = test system: Septoria tritici isolates containing the G143A in the cytochrome b gene; experiment: Glass house Trial 3: control of leaf blotch on wheat caused by two Septoria tritici isolates containing G143A; assay type: in vivo; conditions: % diseased leaf area after about 28 days
Procedure: The spray solutions were prepared in several steps:
The stock solution was prepared as follows: 1.26 ml of a 1:1 mixture of cyclohexanone and dimethylsulfoxide was added to 8.4 mg of active ingredient. Next, 40.74 ml of a mixture of water, acetone (10%), the emulsifier Wettol (0.1%) and the wetting agent Silwet (0.05%) was added. This stock solution was then further diluted with the described solvent-emulsifier-water mixture to the desired concentrations.
Trial 3: Control of Leaf Blotch on Wheat Caused by Caused by Two Septoria tritici Isolates Containing the G143A in the Cytochrome b Gene for their Cytochrome Bc1 Complex
Wheat plants were grown in pots. These plants were sprayed to run-off with an aqueous suspension, containing the desired concentration of active ingredient. The next day, the treated plants were inoculated with an aqueous suspension of Septoria tritici. After inoculation, the trial plants were covered with a lid and immediately transferred to a chamber with a relative humidity of about 83 to 85% and 19.5 to 20° C. After 4 days the lid was removed. Altogether, the trial plants were cultivated for about 28 days in that greenhouse chamber. The extent of fungal attack on the leaves was then visually assessed as % diseased leaf area.

[2] = test system: Septoria tritici (Qo-inhibitor sensitive, wild-type); experiment: Microtiter test, Septoria tritici Qo-inhibitor sensitive wild-type (Use Example 1); assay type: cell-based; conditions: turbidity at 620 nm, read-out: Sensitive Septoria tritici isolate (wild type) (S-IC50)
Procedure: (§1) The active substances were formulated separately as a stock solution in dimethyl sulfoxide (DMSO) at a concentration of 10 000 ppm.
(§2) Activity against the Septoria blotch pathogen caused by Septoria tritici in the microtiter test
(§3) Fungal strains used: • a) Septoria tritici (Qo-inhibitor sensitive, wild-type) • b) Septoria tritici (Qo-inhibitor-resistant, G143A mutant)
(§4) 100 ml 2% Malt extract in water at pH6.8 were inoculated with microspores from 2 week old cultures grown on 2% malt extract+2% agar in Petri dishes and incubated for 3 days on a rotary shaker at 24° C. und 150 rpm. The culture was harvested, glycerol was added (15% (v/v) and kept frozen at −20° C. in aliquots of 1 ml.
(§5) 1 ml stock suspension was thawed and suspended into 800 ml of 2% malt extract in water at pH 6.8. Compounds were diluted from stock solution in (dimethylsulfoxide) DMSO in 10 steps. The compound solutions were diluted 1/5 with sterile deionized water before use. 5 μl of the compound solutions were transferred into empty microplates. The plates were then filled with 195 μl of the microspore suspension of each strain.
(§6) The antifungal activity was determined by measuring the turbidity of a culture in 96-well microplates in the presence of test compounds. Fungal growth was measured by recording the optical density at 620 nm every 15 h for 150 h. The relative antifungal activity was calculated by comparison of the effect of the test compounds with the effect of a DMSO control and a standard fungicide.
(§7) IC50-values (concentration of test compound resulting in 50% inhibition of fungal growth) were calculated from the resulting dose-response for each compound and strain. The initial concentration of the test compounds and the 10 steps of dilution (1:4 each) allowed IC50-values from 0.001 to 100 μmol/l (μM) to be assessed.

[3] = test system: Septoria tritici (Qo-inhibitor-resistant, G143A mutant); experiment: Microtiter test, Septoria tritici Qo-inhibitor-resistant G143A mutant (Use Example 1); assay type: cell-based; conditions: for IC50: read-out: Resistant Septoria tritici isolate (G143A mutation) (R-IC50); for Resistance factor RF = R-IC50/S-IC50: ratio of IC50 for G143A resistant isolate to IC50 for wild-type sensitive isolate
Procedure: as §1, §2, §3, §4, §5, §6, §7

[4] = Resistant Septoria tritici isolate 1 (G143A mutation), 12.5 ppm
[5] = Resistant Septoria tritici isolate 1 (G143A mutation), 25 ppm
[6] = Resistant Septoria tritici isolate 1 (G143A mutation), 50 ppm
[7] = Resistant Septoria tritici isolate 1 (G143A mutation), 100 ppm
[8] = Resistant Septoria tritici isolate 1 (G143A mutation), 200 ppm
[9] = Resistant Septoria tritici isolate 2 (G143A mutation), 12.5 ppm
[10] = Resistant Septoria tritici isolate 2 (G143A mutation), 25 ppm
[11] = Resistant Septoria tritici isolate 2 (G143A mutation), 50 ppm
[12] = Resistant Septoria tritici isolate 2 (G143A mutation), 100 ppm
[13] = Resistant Septoria tritici isolate 2 (G143A mutation), 200 ppm
[14] = microtiter test, Qo-inhibitor-resistant G143A mutant, turbidity at 620 nm

## CO/C=C(C(=O)OC)\C(C)=C/COc1ccn(-c2ccc(Cl)cc2)n1 [Compound I-7, (Z)-5-[1-(4-Chloro-phenyl)-1H-pyrazol-3-yloxy]-2-[1-methoxy-meth-(E)-yl-idene]-3-methyl-pent-3-enoic acid methyl ester]
[1]; [4]
  Disease level (%): 100%
[1]; [5]
  Disease level (%): 80%
[1]; [6]
  Disease level (%): 20%
[1]; [7]
  Disease level (%): 3%
[1]; [8]
  Disease level (%): 3%
[1]; [9]
  Disease level (%): 90%
[1]; [10]
  Disease level (%): 15%
[1]; [11]
  Disease level (%): 5%
[1]; [12]
  Disease level (%): 1%
[1]; [13]
  Disease level (%): 0%

## CNC(=O)C(=NOC)C(C)=CCOc1ccn(-c2ccc(F)cc2F)n1 [Compound I-11]
[1]; [4]
  Disease level (%): 100%
[1]; [5]
  Disease level (%): 90%
[1]; [6]
  Disease level (%): 30%
[1]; [7]
  Disease level (%): 3%
[1]; [8]
  Disease level (%): 1%
[1]; [9]
  Disease level (%): 70%
[1]; [10]
  Disease level (%): 50%
[1]; [11]
  Disease level (%): 30%
[1]; [12]
  Disease level (%): 5%
[1]; [13]
  Disease level (%): 1%

## CNC(=O)C(=NOC)C(C)=CCOc1ccn(-c2ccc(F)cc2Cl)n1 [Compound I-14]
[1]; [4]
  Disease level (%): 100%
[1]; [5]
  Disease level (%): 80%
[1]; [6]
  Disease level (%): 70%
[1]; [7]
  Disease level (%): 15%
[1]; [8]
  Disease level (%): 3%
[1]; [9]
  Disease level (%): 90%
[1]; [10]
  Disease level (%): 70%
[1]; [11]
  Disease level (%): 15%
[1]; [12]
  Disease level (%): 5%
[1]; [13]
  Disease level (%): 1%

## Cn1nnn(-c2ccccc2COc2ccn(-c3ccc(Cl)cc3)n2)c1=O [Compound I-211]
[2]
  IC50: 0.44 µM
[3]; [14]
  IC50: 1.1 µM
[3]
  Resistance factor RF = R-IC50/S-IC50: 2.6
[1]; [4]
  Disease level (%): 80%
[1]; [5]
  Disease level (%): 60%
[1]; [6]
  Disease level (%): 10%
[1]; [7]
  Disease level (%): 3%
[1]; [8]
  Disease level (%): 1%
[1]; [9]
  Disease level (%): 30%
[1]; [10]
  Disease level (%): 10%
[1]; [11]
  Disease level (%): 5%
[1]; [12]
  Disease level (%): 1%
[1]; [13]
  Disease level (%): 0%

## CON=C(C(=O)OC)C(C)=CCOc1ncn(-c2ccc(Cl)c(Cl)c2)n1 [Compound I-291]
[2]
  IC50: 1 µM
[3]; [14]
  IC50: 18 µM
[3]
  Resistance factor RF = R-IC50/S-IC50: 18.0

## CON=C(C(=O)OC)C(C)=CCOc1ncn(-c2ccc(Br)cc2)n1 [Compound I-292]
[2]
  IC50: 7.9 µM
[3]; [14]
  IC50: 33 µM
[3]
  Resistance factor RF = R-IC50/S-IC50: 4.2

## CON=C(C(=O)OC)C(C)=CCOc1ncn(-c2cc(C(F)(F)F)ccc2Cl)n1 [Compound I-298]
[2]
  IC50: 3.6 µM
[3]; [14]
  IC50: 31 µM
[3]
  Resistance factor RF = R-IC50/S-IC50: 8.6

## CON=C(C(=O)OC)C(C)=CCOc1ncn(-c2ccc(Cl)cc2Cl)n1 [Compound I-303]
[2]
  IC50: 0.27 µM
[3]; [14]
  IC50: 4.6 µM
[3]
  Resistance factor RF = R-IC50/S-IC50: 17.0

## CCc1ccc(-n2cnc(OCC=C(C)C(=NOC)C(=O)OC)n2)cc1 [Compound I-304]
[2]
  IC50: 0.53 µM
[3]; [14]
  IC50: 9.1 µM
[3]
  Resistance factor RF = R-IC50/S-IC50: 17.2

## CNC(=O)C(=NOC)C(C)=CCOc1ncn(-c2ccc(Cl)cc2Cl)n1 [Compound I-305]
[2]
  IC50: 9.3 µM
[3]; [14]
  IC50: 32 µM
[3]
  Resistance factor RF = R-IC50/S-IC50: 3.4

## CON=C(C(=O)OC)C(C)=CCOc1ccn(-c2cc(Cl)ccc2C)n1 [Compound I-307]
[2]
  IC50: 19 µM
[3]; [14]
  IC50: 67 µM
[3]
  Resistance factor RF = R-IC50/S-IC50: 3.5

## CON=C(C(=O)OC)C(C)=CCOc1ncn(-c2ccc(C)c(Cl)c2)n1 [Compound I-310]
[2]
  IC50: 0.39 µM
[3]; [14]
  IC50: 11 µM
[3]
  Resistance factor RF = R-IC50/S-IC50: 28.2

## CON=C(C(=O)OC)C(C)=CCOc1ncn(-c2ccccc2C)n1 [Compound I-319]
[2]
  IC50: 17 µM
[3]
  Resistance factor RF = R-IC50/S-IC50: 6.0

## CON=C(C(=O)OC)C(C)=CCOc1ncn(-c2cc(C)ccc2C)n1 [Compound I-324]
[2]
  IC50: 1.9 µM
[3]; [14]
  IC50: 38 µM
[3]
  Resistance factor RF = R-IC50/S-IC50: 20.0

## CON=C(C(=O)OC)C(C)=CCOc1ncn(-c2ccc(C(F)(F)F)cc2Cl)n1 [Compound I-326]
[2]
  IC50: 1.2 µM
[3]; [14]
  IC50: 18 µM
[3]
  Resistance factor RF = R-IC50/S-IC50: 15.0

## CON=C(C(=O)OC)C(C)=CCOc1ncn(-c2cc(Cl)cc(Cl)c2)n1 [Compound I-331]
[2]
  IC50: 1.8 µM
[3]; [14]
  IC50: 25 µM
[3]
  Resistance factor RF = R-IC50/S-IC50: 13.9

## CNC(=O)/C(=N/OC)c1ccccc1COc1cc(C)ccc1C [Dimoxystrobin, reference compound]
[2]
  IC50: 7.1 µM
[3]; [14]
  IC50: > 100 µM

## CO/C=C(/C(=O)OC)c1ccccc1CO/N=C(C)/C=C/c1ccc(Cl)cc1 [Enestroburin, reference compound]
[2]
  IC50: 4.5 µM
[3]; [14]
  IC50: > 100 µM

## CO/N=C(/C(=O)OC)c1ccccc1COc1ccccc1C [Kresoximmethyl]
[2]; Zymoseptoria tritici
  IC50: 0.76 µM
[3]; Zymoseptoria tritici
  IC50: > 100 µM

## CNC(=O)/C(=N/OC)c1ccccc1Oc1ccccc1 [Metominostrobin, reference compound]
[2]; Zymoseptoria tritici
  IC50: > 100 µM
[3]; Zymoseptoria tritici
  IC50: > 100 µM

## CNC(=O)/C(=N/OC)c1ccccc1CO/N=C(C)/C(=N/OC)C(/C)=N/OC [Orysastrobin, reference compound]
[2]
  IC50: 27 µM
[3]; [14]
  IC50: > 100 µM

## CO/C=C(/C(=O)OC)c1ccccc1COc1cccc(C(F)(F)F)n1 [Picoxystrobin, reference compound]
[2]
  IC50: 2.3 µM
[3]; [14]
  IC50: > 100 µM

## COC(=O)N(OC)c1ccccc1COc1c(C)c(-c2ccccc2)nn1C [Pyrametostrobin, reference compound]
[2]
  IC50: > 100 µM
[3]; [14]
  IC50: > 100 µM

## CO/C=C(/C(=O)OC)c1ccccc1COc1cc(-c2ccc(Cl)cc2)nn1C [Pyraoxystrobin, reference compound]
[2]
  IC50: 1.6 µM
[3]; [14]
  IC50: > 100 µM

## CON=C(C(=O)OC)c1ccccc1CON=C(C)c1cccc(C(F)(F)F)c1 [Trifloxystrobin, reference compound]
[2]; Zymoseptoria tritici
  IC50: 0.52 µM
[3]; Zymoseptoria tritici
  IC50: > 100 µM
[1]; [4]
  Disease level (%): 100%
[1]; [5]
  Disease level (%): 100%
[1]; [6]
  Disease level (%): 90%
[1]; [7]
  Disease level (%): 90%
[1]; [8]
  Disease level (%): 90%
[1]; [9]
  Disease level (%): 80%
[1]; [10]
  Disease level (%): 70%
[1]; [11]
  Disease level (%): 70%
[1]; [12]
  Disease level (%): 70%
[1]; [13]
  Disease level (%): 60%
